Test results as given in patent US20050143291A1, “Methods and compositions for modulating apoptosis” (priority 2003, published 2005).

Legend:
[1] = test system: Control cells; test: % Survival (Colony Assay), control cells; format: cell-based
Method: (§1) Experiments were also performed to determine the anti-apoptotic effect conferred by overexpression of GRP78. This task was completed.
(§2) Clonogenic Survival Assays—Four thousand cells were seeded into 10-cm-diameter dishes. […] After drug treatment, the cells were grown in fresh medium for 10 to 14 days. The colonies were washed with ice-cold PBS, fixed with methanol, and stained with 10% Giemsa staining solution. The surviving fraction was determined by dividing the number of the surviving colonies in the drug-treated cells by the number of colonies in the non-treated control groups.

[2] = test system: GRP78 Overexpression cells; test: % Survival (Colony Assay), GRP78 overexpression; format: cell-based; conditions: for % Survival (Colony Assay): GRP78 Overexpression
Method: as §1, §2

[3] = test system: CHO cells; test: Annexin V staining and FACS analysis, CHO cells; format: cell-based, Chinese hamster; conditions: 30 μM etoposide for 6 h
Description: (§3) FIG. 3, Panel A depicts GRP78 overexpression protecting cells from etoposide-induced apoptosis. […] Viable cells are those with low annexin or no annexin and PI staining (lower left panel). Early stage apoptotic cells are represented by high annexin and low PI staining (lower right panel), later stage apoptotic cells represented by high annexin and high PI staining (upper right panel), and necrosis is represented by cells with high PI and low annexin staining (upper left panel).
(§4) Annexin V Staining and FACS Analysis—CHO, C.1, and T24/83 cells were trypsinized, washed twice with ice-cold PBS, pH 7.4, and resuspended in […] binding buffer (10 mM HEPES, pH 7.4, 140 mM NaCl, 2.5 mM CaCl2 at a concentration of 1×10^6 cells/ml. One hundred μl of cell suspension was transferred to 5-ml plastic tubes, and 5 μl of annexin V-fluorescein isothiocyanate (PharMingen) and 4 μl of 0.5 mg/ml PI were added. The cells were gently vortexed and incubated in the dark at room temperature for 20 min. Four hundred μl of binding buffer was added to each tube, and annexin V staining was analyzed by flow cytometry within 1 h. Cells negative for both PI and annexin V staining are live cells, annexin V positive staining cells are early apoptotic cells, and PI positive and annexin V positive staining cells are primarily cells in late stages of apoptosis.
(§5) The apoptotic cells were identified by annexin V labeling.

[4] = test system: C.1 cells (CHO derivative overexpressing GRP78); test: Annexin V staining and FACS analysis, C.1 cells; format: cell-based, Chinese hamster; conditions: 30 μM etoposide for 6 h
Description: as §3, §4, §5

[5] = test system: T24/83-pcDNA cells; test: Annexin V staining and FACS analysis, T24/83-pcDNA cells; format: cell-based, human; conditions: versus non-treated
Method: as §4
(§6) A pair of stably transfected human transitional bladder carcinoma T24/83 cell lines selected and cultured under identical conditions, were used to determine the effect of GRP overexpression on neoplastic cells. The cell line, referred to as T24/83-GRP78, overexpressed human GRP78, and the other line, referred to as T24/83-pcDNA, was stably transfected with the empty expression vector pcDNA (28).

[6] = test system: T24/83-GRP78 cells; test: Annexin V staining and FACS analysis, T24/83-GRP78 cells; format: cell-based, human; conditions: versus non-treated
Method: as §4, §6

[7] = test system: endogenous GRP78; test: Immunoblot of endogenous GRP78 in MDA-MB-435 cells infected with 320 bp AS adenovirus, with or without etoposide; format: cell-based, human; conditions: mock-infected, etoposide treatment by itself
Method: The same cells were infected with the GFP negative control adenovirus. […] Thus, both the full length and the 320 bp version of the AS construct targeted against GRP78 blocked expression of GRP78 in a 293T test system.
Western Blotting—The cell lysate was prepared in radioimmune precipitation assay buffer and subjected to immunoblot with antibodies against GRP78, GRP94, topoisomerase II, caspase-7, and α-actin as described. Nitrocellulose membranes containing the transferred proteins were blocked in Tris-buffered saline containing 5% non-fat dry milk and 0.1% Tween 20 for 1 h at room temperature and were probed with the respective primary antibodies. For GRP78, an anti-KDEL mouse monoclonal antibody (SPA-827), an anti-GRP78 rabbit polyclonal antibody directed against the carboxyl ten amino acids of rat GRP78 (SPA-826) (StressGen, Victoria, Canada), or an anti-hamster GRP78 rabbit polyclonal antibody at 1:3000, 1:2000, and 1:5000 dilution, respectively, was used. […]

[8] = test system: caspase-7; test: Caspase-7 activation in etoposide-treated CHO cells (Western blot); format: cell-based, Chinese hamster; conditions: 100 μM etoposide for 6 h, harvested after 24 h
Method: FIG. 5, Panel A depicts the effect of GRP78 overexpression on topoisomerase II expression and caspase-7 activation. Total protein lysates were prepared from non-treated (Ctrl) or etoposide-treated (Etop) CHO and C.1 cells.
Among the executor caspases, caspase-7 has been reported to be associated with the ER. Upon induction of apoptosis, procaspase-7 (35 kDa) is first converted into a 32-kDa intermediate, which is further processed into active 20- and 11-kDa subunits. […] Upon longer exposure of the autoradiogram, the active 20- and 11-kDa forms were evident in the etoposide-treated cells. When GRP78 was overexpressed, a low level of caspase-7 activation was detected in both the non-treated and etoposide-treated cells. […] In addition, upon addition of cytochrome c, caspase-7 activation was higher in CHO cells than C.1 cells, as evidenced by the increase in the active 20- and 11-kDa forms in the CHO samples compared with the C.1 samples.
The cells were suspended in 5 volumes of a hypotonic buffer (5 mM Tris-HCl, pH 7.4, 5 mM KCl, 1.5 mM MgCl2, 0.1 mM EGTA, pH 8.0, and 1 mM dithiothreitol) in the presence of 2 μg/ml leupeptin, pepstatin, and aprotinin protease inhibitors. After incubation on ice for 20 min, sucrose was added to a final concentration of 250 mM, and the cells were disrupted by douncing eight times in a 1-ml Wheaton Dounce homogenizer. […]

[9] = test system: CHO cells; test: DNA fragmentation assay, CHO cells; format: cell-based, Chinese hamster; conditions: etoposide-treated CHO cells, compared with C.1 cells; 100 μM for 12 h, harvested after 48 h
Method: The DNA fragmentation assays were performed using an apoptosis DNA ladder kit (Roche Molecular Biochemicals) according to manufacturer's instructions.
as §5

[10] = test system: T24/83-GRP78 cells; test: Clonogenic survival assays, T24/83 cells overexpressing GRP78; format: cell-based, human; conditions: versus T24/83-pcDNA cells
Method: as §2

## COc1cc([C@@H]2c3cc4c(cc3[C@@H](O[C@@H]3O[C@@H]5CO[C@@H](C)O[C@H]5[C@H](O)[C@H]3O)[C@H]3COC(=O)[C@H]23)OCO4)cc(OC)c1O [Etoposide]
[1]; etoposide 0.2 μM
  % Survival (Colony Assay): 71%
[1]; etoposide 0.4 μM
  % Survival (Colony Assay): 67%
[1]; etoposide 0.8 μM
  % Survival (Colony Assay): 26%
[1]; etoposide 1.6 μM
  % Survival (Colony Assay): 1.5%
[2]; etoposide 0.2 μM
  % Survival (Colony Assay): 93%
[2]; etoposide 0.4 μM
  % Survival (Colony Assay): 93%
[2]; etoposide 0.8 μM
  % Survival (Colony Assay): 77%
[2]; etoposide 1.6 μM
  % Survival (Colony Assay): 63%
[2]; GRP78 overexpression versus control
  effect of GRP78 overexpression on sensitivity to the drug: confers resistance
[3]; non-treated 9%
  percentage of apoptotic cells (annexin V labeling) upon etoposide treatment: 90%
[3]; versus non-treated
  increase of the percentage of apoptotic cells upon etoposide treatment: 10 fold
[4]; non-treated 15%
  percentage of apoptotic cells (annexin V labeling) upon etoposide treatment: 70%
[4]; versus non-treated
  increase of the percentage of apoptotic cells upon etoposide treatment: 4.7 fold
[5]
  increase of the percentage of annexin V-labeled cells by etoposide treatment: 2.7 fold
[6]
  increase of the percentage of annexin V-labeled cells by etoposide treatment: 1.4 fold
[7]
  reduction of the amount of endogenous GRP78: about 40%
[8]
  caspase-7 activation: activation of caspase-7
[9]
  DNA fragmentation: More extensive DNA fragmentation
[10]
  resistance of T24/83 cells overexpressing GRP78 (clonogenic survival): more resistance
